Assay results reported in patent US8092800B2 (priority 2005, dated 2012).
Marks after values point to notes of the source that are not given here. Square brackets hold non-standard residues; d marks the D form. Peptide text beside a SMILES is read from it. * marks the point of attachment. Sta = CC(C)C[C@H](N)[C@@H](O)CC(=O)O; Isovaleryl = CC(C)CC(=O)*

What was measured:
C. albicans = test: Systemic C. albicans infection in Balb/c mice, PEGylated dAbs; type: in vivo, Candida albicans; conditions: 1 mg/kg at 2 h, 6 h and 24 h post infection
Method: Briefly, mice were chronically infected with C. albicans by injecting 1×10^6 cells per mouse via the lateral tail vein (in 0.2 ml saline). Anti-SAP2 or anti-MP65 dAbs were administered as previously indicated. Survival rates compared with control animals were measured.
PEGylated versions of both monomer and dimer constructs were assayed for efficacy in controlling a systemic C. albicans infection in Balb/c mice, using a protocol similar to the murine systemic model described above. One mg/kg of PEGylated dAb protein or fluconazole was administered at 2 h, 6 h and 24 h post infection to groups of 8 mice.

[1] = tested on: Candida albicans strain SA40; conditions: cited from earlier work
SAP2 = SAP2 (Candida albicans, UniProt P0DJ06)
Sequence of SAP2 (P0DJ06 57-398): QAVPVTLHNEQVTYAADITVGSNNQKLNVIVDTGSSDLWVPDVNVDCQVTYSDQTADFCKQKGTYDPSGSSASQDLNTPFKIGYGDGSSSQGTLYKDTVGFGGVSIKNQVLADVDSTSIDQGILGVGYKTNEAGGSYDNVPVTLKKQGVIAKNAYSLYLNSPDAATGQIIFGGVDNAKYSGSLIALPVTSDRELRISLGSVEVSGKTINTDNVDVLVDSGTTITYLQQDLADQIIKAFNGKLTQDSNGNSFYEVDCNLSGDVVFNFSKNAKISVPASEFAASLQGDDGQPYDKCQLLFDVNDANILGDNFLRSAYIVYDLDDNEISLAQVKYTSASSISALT
Method: This was based on bovine serum albumin degradation by a native, highly purified SAP2 preparation, essentially as described by Ross et al. Briefly, each assay contained 0.6 ml of 1% (w/v) BSA (Sigma Chem. Co., Detroit, Mich.) in 50 mM sodium citrate pH 3.2 and 0.15 enzyme solution (100 μg/ml). After 30 min at 37° C. 0.4 ml 10% (w/v) trichloroacetic acid was added. The tubes were stored in ice for 30 min and then centrifuged (1600×g) for 10 min. The absorbance of supernatant was read at 280 nm. The control was 1% BSA in enzyme-free citrate buffer. One unit of enzyme catalysed a delta OD of 1 per minute.

[2] = tested on: Candida albicans strain SA40; test: Rat vaginal candidiasis model, strain SA40; type: in vivo; conditions: rats, pre-treated 30 min before intravaginal challenge with SA40
Method: The selected dAbs as described above were assayed for their capacity to accelerate fungus clearance from the rat vaginal cavity challenged by a virulent vaginopathic Candida strain. The controls were the use of an irrelevant dAb, and an anti-enolase antibody as negative ones and the antimycotic fluconazole and pepstatin A (the prototypal Sap inhibitor) as positive ones.

Candida albicans = test: Adherence of Candida to plastic; type: cell-based; conditions: anti-MP65 dAbs
Method: The fungal cells were grown at 28° C. on YPD agar slants (2.0% wt/vol glucose, 1.0% wt/vol yeast extract, 2.0 wt/vol Bacto peptone, (Difco, Detroit, Mich.). Single suspensions of each organism were prepared by a modification of the procedure of Rotronsen (Rotronsen, D., et al. 1986. Rev Infect Dis.; 8:73-85). Briefly, cells were grown 24 h at 28° C. on a rotating drum in YBD broth pH5.0 (0.2% wt/vol yeast extract, 2.0% wt/vol […] and 2.0% wt/vol dextrose, (Difco, Detroit, Mich.). After harvesting by centrifugation, the C. albicans cells were washed three times in physiological solution (0.85% NaCl). Blastospores were counted with Thoma camera and adjusted to desired concentration (10^8 cells/ml) in Hank's Balanced Salt Solution with calcium and magnesium (Hyclone, Logan, Utah).
For adherence to the plastic, the fungal cells, grown as above, were washed twice with water and suspended at 1.5×10^3 cells/ml in modified Lee's or M199 liquid media. 1.5×10^3 cells were incubated for 3 hrs at 37° C. in 6-well polystyrene plates (Corning Incorporated, Corning, N.Y.,). After extensive washing, 1 ml of Sabouraud dextrose agar was poured in each well and allowed to solidify. After incubation at 37° C. for 24 hrs, colonies were counted and the results expressed as percentage of the inoculum. […]

OC(Cn1cncn1)(Cn1cncn1)c1ccc(F)cc1F [Fluconazole, fluconazole]
Mean Survival Time (C. albicans): >30 days
Survival (C. albicans): 88%
susceptibility of strain [1]: fully susceptible

CC(C)CC(=O)N[C@H](C(=O)N[C@H](C(=O)N[C@@H](CC(C)C)[C@@H](O)CC(=O)N[C@@H](C)C(=O)N[C@@H](CC(C)C)[C@@H](O)CC(=O)O)C(C)C)C(C)C [pepstatin, pepstatin A] (Isovaleryl-VV[Sta]A[Sta]-OH)
ΔOD/ml/min (BSA degradation by SAP) (SAP2; citrate buffer + 1% BSA + SAP, acidic conditions, no-inhibitor control 1.0): 0.36 ΔOD/ml/min
% Inhibition (SAP2; inhibition of BSA degradation by SAP2, compared with pepstatin (100*)): 100* %

B1: ADR4-6: Sap2 binding dAb, SEQ ID No 18 (protein, listed as Homo sapiens)
VHH: EVQLLESGGGLVQPGGSLRLSCAASGFRVSNYDLTWVRQAPGKGLEWVSTISATNGSTYYADSVKGRFTISRDNSKNTLYLQMNSLRAEDTAVYYCAAVTWWLLRHNDNLGFWGQGTLVTVSS
modifications: Sap2-binding dAb
day of healing/resolution of infection (<1 CFU/μl of vaginal fluid), preventative [2]: 21 days

B2: ADR3-1: MP65 binding dAb, SEQ ID No 5 (antibody, listed as Homo sapiens, V domains shown)
VH: EVQLLESGGGLVQPGGSLRLSCAASGFTFPDYSMTWVRQAPGKGLEWVSLISNSGKTTMYADSVKGRFTISRDNSKNTLYLQMNSLRAEDTAVYYCAKWVNRILQEFDYWGQGTLVTVSS
modifications: MP65-binding dAb
capacity to inhibit adherence to plastic (Candida albicans): capacity to inhibit adherence to plastic

B3: ADR4-13: Sap2 binding dAb, SEQ ID No 25 (protein, listed as Homo sapiens)
VHH: EVQLLESGGGLVQPGGSLRLSCAASGFSISYKNMAWVRQAPGKGLEWVSAIKAANGSTYYADSVKGRFTISRDNSKNTLYLQMNSLRAEDTAVYYCATGSQKKRTYTFDFWGQGTLVTVSS
modifications: Sap2-binding dAb
day of healing/resolution of infection (<1 CFU/μl of vaginal fluid), preventative [2]: 21 days
